Data set [1] can be described thus: Dextromethorphan with quinidine in healthy subjects (Pope et al.). Format: in vivo, human. Particulars: from 68-fold concentration in brain and plasma levels with quinidine. The procedure:
The use of quinidine to inhibit the rapid first-pass metabolism of dextromethorphan allows the attainment of potential neuroprotective drug levels in the brain. […] This dose, 30 mg twice daily (BID) given with 60 mg BID dextromethorphan, increased plasma levels of dextromethorphan 25-fold. In this manner, coadministration of 30 mg of quinidine BID with dextromethorphan in the three unsuccessful amyotrophic lateral sclerosis neuroprotection trials could have readily transformed the inadequate dextromethorphan doses into standard neuroprotective plasma concentrations.
Given the 68-fold concentration of dextromethorphan in brain found in neurosurgery patients (Steinberg et al. J Neurosurg. 1996; 84:860-6), an estimated brain concentration of 13,100 ng/g (about 48 microM) is achievable. This corresponds to neuroprotective levels established in preclinical in vitro (Choi et al. J Pharmacol Exp Ther. 1987; 242:713-20) and in vivo (Steinberg et al. Neurol Res. 1993; 15:174-80) studies.
A reasonable concern is that the achievement of higher dextromethorphan plasma concentrations, as well as the use of quinidine, may be associated with an increased occurrence of adverse events, particularly in patients with neurological disorders. […] No difference was found between the extensive and poor metabolizer phenotypes. […]

In data set [2] the test system is glutamate-induced neurotoxicity in neocortical cell cultures, in vitro hypoxia and glucose deprivation models. Particulars: cited from earlier work.
Data set [3] has as its system neocortical ischemic neuronal damage and edema. Particulars: cited from earlier work.
The subject of data set [4] is methotrexate (MTX) neurotoxicity. The conditions noted are these: oral 1-2 mg/kg, N=5, all patients; cited from earlier work.
For data set [5], the system named is amyotrophic lateral sclerosis. Particulars: cited from earlier work.
The conditions of data set [6]: cited from earlier work.
For data set [7] the following is noted: Huntington's disease, N=11; cited from earlier work.
The conditions of data set [8]: ALS, detectable in only 1 of 7 patients, 4.8 to 10 mg/kg/day, at 3 months; cited from earlier work.
The subject of data set [9] is perioperative brain injury. Particulars: cited from earlier work.
For data set [10] the following is noted: cited from earlier work. This is another data set of the same source.
For data set [11] the following is noted: single oral dose 30 mg, extensive metabolizers (N=5); cited from earlier work.
The conditions of data set [12]: in vivo. The procedure: Dosages of other antioxidants will vary with the antioxidant, and are determined on an individual basis.

Results on three compounds are retold here after patent US20090111846A1, “PHARMACEUTICAL COMPOSITIONS COMPRISING DEXTROMETHORPHAN AND QUINIDINE FOR THE TREATMENT OF DEPRESSION, ANXIETY, AND NEURODEGENERATIVE DISORDERS” (Avanir Pharmaceuticals, priority 2006, published 2009).

Entries after “also recorded” stand apart in the source; their conditions may differ.

As to `COc1ccc2c(c1)[C@]13CCCCC1[C@H](C2)N(C)CC3` (single isomer, unassigned; (+)) [dextromethorphan, (+)-3-methoxy-N-methylmorphinan], the “estimated brain concentration achievable” value in data set [1] was 13,100 ng/g and about 48 microM. Besides, the “concentration giving almost complete protection” value in data set [2] is 100 µM. Further, in data set [3] (animal models of cerebral ischemia), the “neuroprotective plasma (serum) levels” value is not below 500 ng/mL. In data set [3] (conversion of 10,000 ng/g), the neuroprotective brain levels result is given as “about 37 microM”. Also, the “neurological symptoms of MTX neurotoxicity” value in [4] was “completely resolved neurological symptoms; also recorded: completely resolved neurological deficits”. The “clinical or neurophysiological parameter improvements” value in data set [5] (Askmark et al., N=14, 150 mg/day 12-week crossover, then 300 mg/day open) is recorded as “no clinical or neurophysiological parameter”. Moreover, in data set [5] (Blin et al., N=49, 1.5 mg/kg/day, 1-year), the “rate of disease progression vs placebo” value is listed as “no significant differences in rate of disease progression”. In data set [5] (Gredal et al., N=45, 150 mg/day), the 12-month survival entry is on record as “did not demonstrate an improvement in 12-month survival”. Moreover, the adverse reactions result in [6] (even at the highest levels, symptoms tolerable and reversible) was “no patient suffered severe adverse reactions”. For the same compound, the “maximum level in serum” value in data set [6] (neurosurgery patients, maximum 9.64 mg/kg oral dose) is 1514 ng/mL. Besides, the “maximum level in brain” value in data set [6] (neurosurgery patients) was 92,700 ng/g. For the same compound, the “median peak tolerated dose” value in data set [7] is reported as 410 mg/day. Moreover, the “steady-state plasma level (Cmax)” value in [8] was 190 ng/mL. In data set [9] (oral 36-38 mg/kg/day, children, cardiac surgery), the “levels in CSF” value was 285 to 939 ng/mL. The adverse events result in data set [9] (oral 36-38 mg/kg/day) is given as “not observed”. For the same compound, the “postoperative EEG sharp waves” value in data set [9] (p=0.02, N=13) was “significantly decreased postoperative EEG sharp waves”. Moreover, the “third ventricle postoperative enlargement, diameter” value in data set [9] (vs. 0.256 cm placebo, p=0.06) was 0.112 cm. The “rate of postoperative periventricular white matter lesions” value in data set [9] (vs. 2/7 placebo) is 0/6. For the same compound, the AUC0-12 in [10] (120 mg daily dextromethorphan (60 mg BID) with quinidine (30 mg BID), steady state) is 1963 ± 609 ng·h/mL. Moreover, in [10] (120 mg daily dextromethorphan (60 mg BID) with quinidine (30 mg BID)), the “steady state peak plasma levels” value was 192 ± 45 ng/mL. Moreover, in data set [11], the dextromethorphan in plasma entry is “not detectable or at the limits of detection”.
`CNCCC(Oc1ccc(C(F)(F)F)cc1)c1ccccc1` (stereo not drawn) [fluoxetine]: in [12], the “increase of dextromethorphan concentrations in the blood” value is recorded as “effective in increasing dextromethorphan concentrations in the blood of some people”.
`C=C[C@H]1C[N@]2CC[C@@H]1C[C@@H]2[C@@H](O)c1ccnc2ccc(OC)cc12` [quinidine]: in data set [10] (human, in vivo), the “lowest dose needed to maximally suppress O-demethylation of dextromethorphan” value is recorded as “about 30 mg”. In data set [10] (quinidine 30 mg BID given with 60 mg BID dextromethorphan), the “increase of plasma levels of dextromethorphan” value was 25 fold.
